Columns and labels:
Assay in all cases: relative viability (nuclei count vs DMSO), 5 days (fraction); higher = more cells survive
[1] = compound: C1=CC=C2C(=C1)N=C(S2)C(C#N)C3=NC(=NC=C3)NCCC4=CN=CC=C4 + CS(=O)(=O)N1CCN(Cc2cc3nc(-c4cccc5[nH]ncc45)nc(N4CCOCC4)c3s2)CC1 [Pictilisib] (partner 1 µM)
How it was run: (§1)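 Relative viability was taken as the ratio of nuclei in treated wells to nuclei in vehicle wells. Lung cancer cell lines in 1536-well plates received compounds by pin tool one day after seeding, either one drug alone or a fixed anchor-drug dose plus five library-drug doses (not always all listed) in √10 steps. Nuclei were counted on 4× images after 5 days of treatment, and values are medians of duplicate plates.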

NVP-TAE684 + Foretinib = compound: COc1cc(N2CCC(N3CCN(C)CC3)CC2)ccc1Nc1ncc(Cl)c(Nc2ccccc2S(=O)(=O)C(C)C)n1 [NVP-TAE684] + COc1cc2c(Oc3ccc(NC(=O)C4(C(=O)Nc5ccc(F)cc5)CC4)cc3F)ccnc2cc1OCCCN1CCOCC1 [Foretinib] (partner 0.25 µM)
How it was run: as §1

Vandetanib + Trametinib = compound: COc1cc2/c(=N/c3ccc(Br)cc3F)nc[nH]c2cc1OCC1CCN(C)CC1 [Vandetanib] + CC(=O)Nc1cccc(-n2c(=O)n(C3CC3)c(=O)c3c(Nc4ccc(I)cc4F)n(C)c(=O)c(C)c32)c1 [Trametinib] (partner 0.02 µM)
How it was run: as §1

Vandetanib + Luminespib = compound: COc1cc2/c(=N/c3ccc(Br)cc3F)nc[nH]c2cc1OCC1CCN(C)CC1 [Vandetanib] + CCNC(=O)c1noc(-c2cc(C(C)C)c(O)cc2O)c1-c1ccc(CN2CCOCC2)cc1 [Luminespib] (partner 0.01 µM)
How it was run: as §1

| Cell Line | relative viability ([1]; first compound 0.005 µM) | relative viability ([1]; first compound 0.01581 µM) | relative viability ([1]; first compound 0.05 µM) | relative viability ([1]; first compound 0.1581 µM) | relative viability ([1]; first compound 0.5 µM) | relative viability (NVP-TAE684 + Foretinib; first compound 0.2 µM) | relative viability (NVP-TAE684 + Foretinib; first compound 0.6325 µM) | relative viability (NVP-TAE684 + Foretinib; first compound 2 µM) | relative viability (Vandetanib + Trametinib; first compound 0.02 µM) | relative viability (Vandetanib + Trametinib; first compound 0.06325 µM) | relative viability (Vandetanib + Trametinib; first compound 0.2 µM) | relative viability (Vandetanib + Trametinib; first compound 0.6325 µM) | relative viability (Vandetanib + Trametinib; first compound 2 µM) | relative viability (Vandetanib + Luminespib; first compound 0.02 µM) | relative viability (Vandetanib + Luminespib; first compound 0.06325 µM) | relative viability (Vandetanib + Luminespib; first compound 0.2 µM) | relative viability (Vandetanib + Luminespib; first compound 0.6325 µM) | relative viability (Vandetanib + Luminespib; first compound 2 µM) |
| --- | --- | --- | --- | --- | --- | --- | --- | --- | --- | --- | --- | --- | --- | --- | --- | --- | --- | --- |
| HCC-827 | 0.982 | 0.912 | 0.864 | 1.25 | 1.09 | 1.16 | 1.02 | 0.874 | 0.568 | 0.457 | 0.501 | 0.266 | 0.16 | 0.897 | 0.589 | 0.57 | 0.183 | 0.147 |
| HOP-62 | 0.585 | 0.672 | 0.646 | 0.945 | 0.775 | 1.21 | 1.12 | 1.12 | 0.354 | 0.368 | 0.36 | 0.4 | 0.363 | 0.884 | 0.886 | 0.909 | 0.823 | 0.848 |
| IA-LM | 0.25 | 0.368 | 0.285 | 0.387 | 0.377 | 1.07 | 1.07 | 1.11 | – | – | – | – | – | – | – | – | – | – |
| LC-2-ad | 0.437 | 0.524 | 0.487 | 0.556 | 0.426 | 0.936 | 0.864 | 0.403 | 0.899 | 0.858 | 0.939 | 0.861 | 0.662 | 0.987 | 0.996 | 1.09 | 1 | 0.616 |
| LCLC-97TM1 | 0.215 | 0.179 | 0.156 | 0.181 | 0.236 | 0.933 | 0.897 | 0.278 | 0.201 | 0.217 | 0.202 | 0.192 | 0.165 | 0.691 | 0.787 | 0.749 | 0.721 | 0.778 |
| LCLC-103H | 0.493 | 0.446 | 0.498 | 0.707 | 0.681 | 0.681 | 0.681 | 0.297 | 0.665 | 0.606 | 0.638 | 0.677 | 0.695 | 0.922 | 0.979 | 0.906 | 0.916 | 0.912 |
| LK-2 | – | – | 0.531 | 0.597 | 0.685 | 1.14 | 1.28 | 0.316 | 0.753 | 0.829 | 0.82 | 0.62 | 0.724 | 0.189 | 0.163 | 0.235 | 0.156 | 0.214 |
| LOU-NH91 | 0.51 | 0.515 | 0.477 | 0.533 | 0.489 | 0.892 | 0.92 | 0.801 | 0.775 | 0.731 | 0.725 | 0.716 | 0.673 | 0.33 | 0.306 | 0.294 | 0.369 | 0.32 |
| LU99A | 0.281 | 0.354 | 0.336 | 0.394 | 0.338 | 0.873 | 0.83 | 0.365 | 0.486 | 0.518 | 0.396 | 0.512 | 0.539 | 0.231 | 0.233 | 0.273 | 0.255 | 0.256 |
| LXF-289 | 0.705 | 0.922 | 0.893 | 0.899 | 0.676 | 1.05 | 0.958 | 0.715 | 0.681 | 0.663 | 0.606 | 0.69 | 0.677 | 0.626 | 0.627 | 0.744 | 0.718 | 0.624 |
| NCI-H23 | – | 0.464 | 0.455 | 0.508 | 0.511 | 1.03 | 0.769 | 0.356 | 0.382 | 0.342 | 0.335 | 0.455 | 0.293 | 0.259 | 0.224 | 0.232 | 0.221 | 0.221 |
| NCI-H322M | 0.482 | 0.477 | 0.492 | 0.552 | 0.486 | 0.828 | 0.827 | 0.565 | 0.513 | 0.476 | 0.516 | 0.55 | 0.486 | 0.805 | 0.8 | 0.889 | 0.834 | 0.504 |
| NCI-H358 | 0.347 | 0.295 | 0.319 | 0.371 | 0.342 | 0.736 | 0.672 | 0.099 | 0.153 | 0.129 | 0.123 | 0.128 | 0.123 | 0.336 | 0.471 | 0.461 | 0.218 | 0.239 |
| NCI-H522 | – | – | – | – | – | – | – | – | 0.87 | 0.818 | 0.856 | 0.791 | 0.771 | 1.3 | 1.17 | 1.11 | 1.18 | 0.96 |
| NCI-H1299 | 0.682 | 0.941 | 0.807 | 0.875 | 0.834 | 1.16 | 1.14 | 1.08 | – | – | – | – | – | – | – | – | – | – |
| NCI-H1563 | 0.642 | 0.619 | 0.677 | 0.709 | 0.647 | 0.914 | 0.88 | 0.696 | – | – | – | – | – | 0.552 | 0.53 | 0.515 | 0.518 | 0.473 |
| NCI-H1623 | – | – | – | – | – | 0.865 | 0.899 | 0.65 | – | – | – | – | – | 0.504 | 0.577 | 0.581 | 0.521 | 0.436 |
| NCI-H1648 | – | – | – | – | – | – | – | – | 0.426 | 0.461 | 0.512 | 0.541 | 0.506 | – | – | – | – | – |
| NCI-H1703 | 0.242 | 0.223 | 0.218 | 0.261 | 0.252 | 0.388 | 0.325 | 0.331 | – | – | – | – | – | – | – | – | – | – |
| NCI-H1792 | – | 0.312 | 0.285 | 0.246 | 0.225 | – | – | – | 0.407 | 0.413 | 0.463 | 0.502 | 0.354 | 0.492 | 0.496 | 0.355 | 0.461 | 0.413 |
| NCI-H2342 | – | – | – | – | – | 1.07 | 1.06 | 0.545 | 0.823 | 0.826 | 0.869 | 0.851 | 0.809 | 0.757 | 0.71 | 0.716 | 0.754 | 0.651 |
| SW 900 | – | – | – | – | – | 0.86 | 0.802 | 0.638 | 0.654 | 0.71 | – | 0.673 | 0.549 | 0.19 | 0.17 | 0.195 | 0.204 | 0.175 |

Reference: the supplement of paper PMC10307832
